In BindingDB's records for patent WO2022093820 (GENENTECH, INC., 2022):

Target: Phosphatidylinositol 3-kinase catalytic subunit type 3 (Homo sapiens, UniProt Q8NEB9)
Assay: VPS34 ADP-Glo kinase assay
Procedure: Experimental compound in DMSO was dispensed to a 384-well microplate via acoustic dispenser at 50 nl per well. […] Assay buffer conditions were as follows: 50 mM HEPES, pH 7.5, 3 mM MnCl2, 0.01% BSA, 0.01% Brij 35, 1 mM TCEP. The 5 µl reaction was incubated for 90 minutes at room temperature, and then quenched with equal volume of ADP-Glo Reagent (5 µl; Promega). Quenched reaction was incubated for 60 min, followed by addition of an equal volume of Kinase Detection Reagent (10 µl; Promega). Luminescence signal was detected on an Envision (Perkin Elmer).

Chain of Phosphatidylinositol 3-kinase catalytic subunit type 3 (Q8NEB9 whole entry): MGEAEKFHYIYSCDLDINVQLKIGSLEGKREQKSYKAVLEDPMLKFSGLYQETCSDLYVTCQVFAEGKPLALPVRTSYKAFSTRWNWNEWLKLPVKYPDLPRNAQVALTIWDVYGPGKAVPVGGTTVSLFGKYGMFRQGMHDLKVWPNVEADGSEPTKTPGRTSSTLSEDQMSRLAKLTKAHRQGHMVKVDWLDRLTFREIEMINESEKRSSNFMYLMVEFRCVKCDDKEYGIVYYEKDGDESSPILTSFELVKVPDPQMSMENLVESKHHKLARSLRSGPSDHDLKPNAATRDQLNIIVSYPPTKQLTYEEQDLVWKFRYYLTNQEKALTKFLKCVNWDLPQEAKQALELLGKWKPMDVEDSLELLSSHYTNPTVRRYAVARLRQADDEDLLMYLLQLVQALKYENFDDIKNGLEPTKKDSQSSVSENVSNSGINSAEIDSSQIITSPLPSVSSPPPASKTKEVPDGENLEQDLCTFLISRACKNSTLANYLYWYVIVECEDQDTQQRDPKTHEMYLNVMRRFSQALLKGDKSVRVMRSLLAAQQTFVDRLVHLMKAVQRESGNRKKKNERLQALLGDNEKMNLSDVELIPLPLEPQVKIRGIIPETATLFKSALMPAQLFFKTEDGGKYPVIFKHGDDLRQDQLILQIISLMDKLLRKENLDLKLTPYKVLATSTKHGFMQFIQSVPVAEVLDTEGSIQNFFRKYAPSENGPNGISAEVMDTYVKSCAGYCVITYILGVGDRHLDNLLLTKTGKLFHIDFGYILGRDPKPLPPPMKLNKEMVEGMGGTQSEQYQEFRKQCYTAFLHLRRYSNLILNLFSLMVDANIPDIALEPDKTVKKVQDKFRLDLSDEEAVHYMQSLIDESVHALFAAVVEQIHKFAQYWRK

| IC50 [nM] | SMILES |
| --- | --- |
| 100 | C[C@@H]1COCCN1c1cc2n(n1)[C@H](C1(c3ccccc3)CC1)CNC2=O [WO2022093820, Compound 48] |
| 35000 | C[C@@H]1COCCN1c1cc2n(n1)[C@@H](C1(c3ccccc3)CC1)CNC2=O [WO2022093820, Compound 49] |
| 847 | CC(C)C1(CO)CNC(=O)c2cc(N3CCOC[C@H]3C)nn21 (stereo partly specified) [WO2022093820, Compound 50] |
| 682 | C[C@@H]1COCCN1c1cc2n(n1)C[C@H](CC(F)(F)F)NC2=O [WO2022093820, Compound 51] |
| 24700 | C[C@@H]1COCCN1c1cc2n(n1)C[C@@H](CC(F)(F)F)NC2=O [WO2022093820, Compound 52] |
| 36200 | COC[C@@]1(C(C)C)CNC(=O)c2cc(N3CCOC[C@H]3C)nn21 [WO2022093820, Compound 53] |
| 563 | COC[C@]1(C(C)C)CNC(=O)c2cc(N3CCOC[C@H]3C)nn21 [WO2022093820, Compound 54] |
| 50000 | C[C@H](c1ccccc1)C1CNC(=O)c2cc(N3CCOC[C@H]3C)nn21 (stereo partly specified) [WO2022093820, Compound 55] |
| 119 | C[C@@H]1COCCN1c1cc2n(n1)C([C@@H](C)c1ccccc1)CNC2=O (stereo partly specified) [WO2022093820, Compound 56] |
| 50000 | C[C@H](c1ccccc1)[C@@H]1CNC(=O)c2cc(N3CCOC[C@H]3C)nn21 [WO2022093820, Compound 57] |
| 388 | C[C@@H]1COCCN1c1cc2n(n1)[C@H]([C@@H](C)c1ccccc1)CNC2=O [WO2022093820, Compound 58] |
| 36000 | C[C@@H]1COCCN1c1cc2n(n1)[C@H](CC(F)(F)F)CNC2=O [WO2022093820, Compound 59] |
| 429 | C[C@@H]1COCCN1c1cc2n(n1)[C@@H](CC(F)(F)F)CNC2=O [WO2022093820, Compound 60] |
| 12800 | CC(C)C[C@@H]1CNC(=O)c2cc(N3CCOC[C@H]3C)nn21 [WO2022093820, Compound 61] |
| 739 | CC(C)C[C@H]1CNC(=O)c2cc(N3CCOC[C@H]3C)nn21 [WO2022093820, Compound 62] |
| 33600 | CC[C@@H](C)C[C@H]1CNC(=O)c2cc(N3CCOC[C@H]3C)nn21 [WO2022093820, Compound 64] |
| 109 | CC[C@H](C)C[C@@H]1CNC(=O)c2cc(N3CCOC[C@H]3C)nn21 [WO2022093820, Compound 65] |
| 32400 | C[C@H](CO)[C@@H]1CNC(=O)c2cc(N3CCOC[C@H]3C)nn21 [WO2022093820, Compound 67] |
| 27300 | C[C@@H]1COCCN1c1cc2n(n1)[C@H]([C@@H](C)CO)CNC2=O [WO2022093820, Compound 68] |
| 784 | C[C@@H]1COCCN1c1cc2n(n1)C([C@@H](C)CO)CNC2=O (stereo partly specified) [WO2022093820, Compound 69] |
| 532 | C[C@H](CO)C1CNC(=O)c2cc(N3CCOC[C@H]3C)nn21 (stereo partly specified) [WO2022093820, Compound 70] |
| 919 | C[C@@H]1COCCN1c1cc2n(n1)C(C)(C)CNC2=O [WO2022093820, Compound 71] |

The next lines start with the compound.

| SMILES | IC50 [nM] |
| --- | --- |
| C[C@@H]1COCCN1c1cc2n(n1)[C@H](C1(C)CC1)CNC2=O [WO2022093820, Compound 11] | 56 |
| C[C@@H]1COCCN1c1cc2n(n1)[C@@H](C1(C)CC1)CNC2=O [WO2022093820, Compound 12] | 3350 |
| C[C@@H]1COCCN1c1cc2n(n1)[C@H](C(F)(F)C(F)(F)F)CNC2=O [WO2022093820, Compound 15] | 52 |
| C[C@@H]1COCCN1c1cc2n(n1)[C@@H](C(F)(F)C(F)(F)F)CNC2=O [WO2022093820, Compound 16] | 50000 |
| C[C@@H]1COCCN1c1cc2n(n1)[C@](C)(C1CC1)CNC2=O [WO2022093820, Compound 23] | 41 |
| C[C@@H]1COCCN1c1cc2n(n1)[C@@](C)(C1CC1)CNC2=O [WO2022093820, Compound 24] | 1340 |
| CC(C)[C@]1(C)CNC(=O)c2cc(N3CCOC[C@H]3C)nn21 [WO2022093820, Compound 25] | 90 |
| CC(C)[C@@]1(C)CNC(=O)c2cc(N3CCOC[C@H]3C)nn21 [WO2022093820, Compound 26] | 2170 |
| CC[C@@]1(C2CC2)CNC(=O)c2cc(N3CCOC[C@H]3C)nn21 [WO2022093820, Compound 27] | 32 |
| CC[C@]1(C2CC2)CNC(=O)c2cc(N3CCOC[C@H]3C)nn21 [WO2022093820, Compound 28] | 1300 |
| C[C@@H]1COCCN1c1cc2n(n1)[C@](C)(C1CC1)C1(CC1)NC2=O [WO2022093820, Compound 29] | 27 |
| C[C@@H]1COCCN1c1cc2n(n1)[C@@](C)(C1CC1)C1(CC1)NC2=O [WO2022093820, Compound 30] | 1750 |
| CC(C)[C@H]1n2nc(N3CCOC[C@H]3C)cc2C(=O)NC12CC2 [WO2022093820, Compound 33] | 24 |
| CC(C)[C@@H]1n2nc(N3CCOC[C@H]3C)cc2C(=O)NC12CC2 [WO2022093820, Compound 34] | 21000 |
| C[C@@H]1COCCN1c1cc2n(n1)[C@@H]1CCC(C)(C)[C@@H]1NC2=O [WO2022093820, Compound 41] | 51 |
| C[C@@H]1COCCN1c1cc2n(n1)[C@](C)(C1CCC1)CNC2=O [WO2022093820, Compound 44] | 4000 |
| C[C@@H]1COCCN1c1cc2n(n1)[C@@](C)(C1CCC1)CNC2=O [WO2022093820, Compound 45] | 260 |
| CC[C@@H]1CNC(=O)c2cc(N3CCOC[C@H]3C)nn21 [WO2022093820, Compound 46] | 12800 |
| CC[C@H]1CNC(=O)c2cc(N3CCOC[C@H]3C)nn21 [WO2022093820, Compound 47] | 747 |
